In patent publication US20160068514A1, “HALO AND TRIFLUOROMETHYL SUBSTITUTED OREXIN RECEPTOR ANTAGONISTS” (MERCK SHARP & DOHME CORP., priority 2013, published 2016):

Key:
[1] = biological target: T1, human orexin-2 receptor (hOX2R) (Homo sapiens, UniProt O43614); assay: FLIPR Ca2+ Flux Assay, hOX2R; assay type: cell-based; conditions: CHO cells expressing hOX2R; agonist Ala-6,12 human orexin-A 70 pM
T1 construct: expressed in transfected cells; host or cells: Chinese hamster ovary (CHO) cells
T1 sequence (O43614 1-444): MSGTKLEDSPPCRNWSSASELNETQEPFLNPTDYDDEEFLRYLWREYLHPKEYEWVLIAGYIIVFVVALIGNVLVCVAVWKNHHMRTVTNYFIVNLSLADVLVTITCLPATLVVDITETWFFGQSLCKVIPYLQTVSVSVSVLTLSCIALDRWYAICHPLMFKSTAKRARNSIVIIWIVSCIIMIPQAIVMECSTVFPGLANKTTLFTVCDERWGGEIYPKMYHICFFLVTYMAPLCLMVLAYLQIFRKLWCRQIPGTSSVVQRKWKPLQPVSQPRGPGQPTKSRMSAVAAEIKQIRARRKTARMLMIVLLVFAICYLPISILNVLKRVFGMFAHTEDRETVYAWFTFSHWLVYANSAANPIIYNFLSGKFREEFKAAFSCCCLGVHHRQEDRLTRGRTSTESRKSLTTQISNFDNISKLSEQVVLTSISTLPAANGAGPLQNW
From the text: (§1) The utility of the compounds in accordance with the present invention as orexin receptor OX1R and/or OX2R antagonists may be readily determined without undue experimentation by methodology well known in the art, including the “FLIPR Ca^2+ Flux Assay” (Okumura et al., Biochem. Biophys. Res. Comm. 2001, 280:976-981). Briefly, for intracellular calcium measurements, Chinese hamster ovary (CHO) cells expressing the orexin-1 receptor (e.g., rat or human) or the orexin-2 receptor (e.g., rat or human), are grown in Iscove's modified DMEM containing 2 mM L-glutamine, […], 1% hypoxanthine-thymidine supplement, 100 U/ml penicillin, 100 μg/ml streptomycin and 10% heat-inactivated fetal calf serum (FCS). The cells are seeded at approximately 20,000 cells per well into 384-well clear bottom sterile plates coated with poly-D-lysine. The seeded plates are incubated overnight at 37° C. and 5% CO2. Human ala-6,12 orexin-A can be used as the agonist and prepared as a 1 mM stock solution in 1% bovine serum albumin (BSA) and diluted in assay buffer (HBSS containing 20 mM HEPES, 0.1% BSA and 2.5 mM probenecid, pH7.4) for use in the assay at a final concentration of 70 pM. Test compounds are prepared as 10 mM stock solution in DMSO, then diluted in 384-well plates, first in DMSO, then in assay buffer. On the day of the assay, cells are washed 3 times with 100 μl assay buffer and then incubated for 60 minutes (37° C., 5% CO2) in 60 μl assay buffer containing 1 μM Fluo-4AM ester, 0.02% pluronic acid, and 1% BSA. The dye loading solution is then aspirated and cells are washed 3 times with 100 μl assay buffer. 30 μl of that same buffer is left in each well. Within the Fluorescent Imaging Plate Reader (FLIPR, Molecular Devices), test compounds are added to the plate in a volume of 25 μl, incubated for 5 minutes, and then 25 μl of agonist is added. Fluorescence is measured for each well at 1 second intervals for 5 minutes, and the height of each fluorescence peak is compared to the height of the fluorescence peak induced by 70 pM of agonist ala-6,12 orexin-A with buffer in place of test compound. IC50 value for the test compound is determined to be the concentration of compound needed to inhibit 50% of the agonist response. Alternatively, compound potency can be assessed using a radioligand binding assay (described in Bergman et. al. Bioorg. Med. Chem. Lett. 2008, 18:1425-1430) in which the inhibition constant (Ki) is determined in membranes prepared from CHO cells expressing either the OX1 or OX2 receptor. The intrinsic orexin receptor antagonist activity of a compound of the present invention may be determined by these assays.
(§2) Chinese hamster ovary (CHO) cells expressing the human orexin-1 receptor (hOX1R) or the human orexin-2 receptor (hOX2R) were grown in Iscove's modified DMEM containing 2 mM L-glutamine, […], 1% hypoxanthine-thymidine supplement, 100 U/ml penicillin, 100 μg/ml streptomycin and 10% heat-inactivated fetal calf serum (FCS). The cells were seeded at −20,000 cells/well into Becton-Dickinson black 384-well clear bottom sterile plates coated with poly-D-lysine. All reagents were from GIBCO-Invitrogen Corp. The seeded plates were incubated overnight at 37° C. and 5% CO2. Ala-6,12 human orexin-A, used as the agonist, was prepared as a 1 mM stock solution in 1% bovine serum albumin (BSA) and diluted in assay buffer (HBSS containing 20 mM HEPES, 0.1% BSA and 2.5 mM probenecid, pH7.4) for use in the assay at a final concentration of 70 pM. Test compounds were prepared as 10 mM stock solution in DMSO, then diluted in 384-well plates, first in DMSO, then assay buffer.
(§3) On the day of the assay, cells were washed 3× with 100 μl assay buffer and then incubated for 60 minutes (37° C., 5% CO2) in 60 μl assay buffer containing 1 μM Fluo-4AM ester, 0.02% pluronic acid, and 1% BSA. The dye loading solution was then aspirated and cells were washed 3× with 100 μl assay buffer. 30 μl of that same buffer was left in each well. […]

[2] = biological target: T2, human orexin-1 receptor (hOX1R) (Homo sapiens, UniProt O43613); assay: FLIPR Ca2+ Flux Assay, hOX1R; assay type: cell-based; conditions: CHO cells expressing hOX1R; agonist Ala-6,12 human orexin-A 70 pM
T2 construct: expressed in transfected cells; host or cells: Chinese hamster ovary (CHO) cells
T2 sequence (O43613 1-425): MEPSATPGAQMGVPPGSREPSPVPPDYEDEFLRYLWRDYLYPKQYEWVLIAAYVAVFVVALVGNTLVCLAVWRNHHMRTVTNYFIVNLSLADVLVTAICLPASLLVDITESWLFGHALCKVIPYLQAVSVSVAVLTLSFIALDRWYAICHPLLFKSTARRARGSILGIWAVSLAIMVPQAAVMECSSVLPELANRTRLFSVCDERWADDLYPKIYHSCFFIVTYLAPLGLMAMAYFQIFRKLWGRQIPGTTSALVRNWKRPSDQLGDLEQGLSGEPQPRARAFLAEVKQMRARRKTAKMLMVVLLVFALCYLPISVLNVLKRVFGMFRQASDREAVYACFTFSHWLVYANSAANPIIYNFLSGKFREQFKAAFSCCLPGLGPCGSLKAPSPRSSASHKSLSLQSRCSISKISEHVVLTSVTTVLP
From the text: as §1, §2, §3

Structure (SMILES) | IC50 [1] [µM] | IC50 [2] [µM]
Cc1c(I)ccnc1O[C@@H]1CC[C@@H](C)N(C(=O)c2ccccc2-n2nccn2)C1 [Example 4, 4-iodo-3-methyl-2-{[(3R,6R)-6-methyl-1-{[2-(2H-1,2,3-triazol-2-yl)phenyl]carbonyl}piperidin-3-yl]oxy}pyridine] | 0.0088 | 0.118
C[C@@H]1CC[C@@H](Oc2cc(F)ccn2)CN1C(=O)c1ccccc1-n1nccn1 [Example 16, 4-fluoro-2-{[(3R,6R)-6-methyl-1-{[2-(2H-1,2,3-triazol-2-yl)phenyl]carbonyl}piperidin-3-yl]oxy}pyridine] | 0.034 | 2.31
COc1ccc(C(=O)N2C[C@H](Oc3cc(Br)ccn3)CC[C@H]2C)c(-n2nccn2)n1 [Example 9, 3-({(2R,5R)-5-[(4-bromopyridin-2-yl)oxy]-2-methylpiperidin-1-yl}carbonyl)-6-methoxy-2-(2H-1,2,3-triazol-2-yl)pyridine] | 0.0363 | 
COc1ccc(C(=O)N2C[C@H](Oc3nccc(C(F)(F)F)c3F)CC[C@H]2C)c(-n2nccn2)n1 [Example 2, 3-fluoro-2-{[(3R,6R)-1-{[6-methoxy-2-(2H-1,2,3-triazol-2-yl)pyridin-3-yl]carbonyl}-6-methylpiperidin-3-yl]oxy}-4-(trifluoromethyl)pyridine] | 0.105 | 
C[C@@H]1CC[C@@H](Oc2cc(C(F)(F)F)ccn2)CN1C(=O)c1ccccc1-n1ncnn1 [Example 6, 2-{[(3R,6R)-6-Methyl-1-{[2-(2H-tetrazol-2-yl)phenyl]carbonyl}piperidin-3-yl]oxy}-4-(trifluoromethyl)pyridine] | 0.01 | 0.828
C[C@@H]1CC[C@@H](Oc2cc(Br)ccn2)CN1C(=O)c1ccccc1-n1ncnn1 [Example 12, 4-bromo-2-{[(3R,6R)-6-methyl-1-{[2-(2H-tetrazol-2-yl)phenyl]carbonyl}piperidin-3-yl]oxy}pyridine] | 0.01 | 0.986
COc1ccc(C(=O)N2C[C@H](Oc3nccc(I)c3OC)CC[C@H]2C)c(-n2nccn2)n1 [Example 8, 4-iodo-3-methoxy-2-{[(3R,6R)-1-{[6-methoxy-2-(2H-1,2,3-triazol-2-yl)pyridin-3-yl]carbonyl}-6-methylpiperidin-3-yl]oxy}pyridine] | 0.0493 | 2.5
C[C@@H]1CC[C@@H](Oc2cc(C(F)(F)F)ccn2)CN1C(=O)c1ccccc1-n1nccn1 [Example 3, 2-{[(3R,6R)-6-methyl-1-{[2-(2H-1,2,3-triazol-2-yl)phenyl]carbonyl}piperidin-3-yl]oxy}-4-(trifluoromethyl)pyridine] | 0.0178 | 0.377
C[C@@H]1CC[C@@H](Oc2cccc(F)c2)CN1C(=O)c1ccccc1-n1nccn1 [Example 18, (2R,5R)-5-(3-fluorophenoxy)-2-methyl-1-{[2-(2H-1,2,3-triazol-2-yl)phenyl]carbonyl}piperidine] | 0.132 | 
C[C@@H]1CC[C@@H](Oc2nccc(C(F)(F)F)c2F)CN1C(=O)c1ccccc1-n1nccn1 [Example 1, 3-Fluoro-2-{[(3R,6R)-6-methyl-1-{[2-(2H-1,2,3-triazol-2-yl)phenyl]carbonyl}piperidin-3-yl]oxy}-4-(trifluoromethyl)pyridine] | 0.0385 | 0.839
COc1ccc(C(=O)N2C[C@H](Oc3cc(F)ccn3)CC[C@H]2C)c(-n2nccn2)n1 [Example 13, 3-({(2R,5R)-5-[(4-fluoropyridin-2-yl)oxy]-2-methylpiperidin-1-yl}carbonyl)-6-methoxy-2-(2H-1,2,3-triazol-2-yl)pyridine] | 0.467 | 
C[C@@H]1CC[C@@H](Oc2cc(Br)ccn2)CN1C(=O)c1ccccc1-n1nccn1 [Example 17, 4-bromo-2-{[(3R,6R)-6-methyl-1-{[2-(2H-1,2,3-triazol-2-yl)phenyl]carbonyl}piperidin-3-yl]oxy}pyridine] | 0.0038 | 0.179
C[C@@H]1CC[C@@H](Oc2cc(Cl)ccn2)CN1C(=O)c1ccccc1-n1ncnn1 [Example 11] | 0.01 | 0.917
C[C@@H]1CC[C@@H](Oc2cc(I)ccn2)CN1C(=O)c1ccccc1-n1nccn1 [Example 5, 4-iodo-2-{[(3R,6R)-6-methyl-1-{[2-(2H-1,2,3-triazol-2-yl)phenyl]carbonyl}piperidin-3-yl]oxy}pyridine] | 0.0073 | 0.414
COc1ccc(C(=O)N2C[C@H](Oc3nccc(I)c3OC)CC[C@H]2C)c(-c2ncccn2)n1 [Example 14, 2-[3-({(2R,5R)-5-[(4-Iodo-3-methoxypyridin-2-yl)oxy]-2-methylpiperidin-1-yl}carbonyl)-6-methoxypyridin-2-yl]pyrimidine] | 0.0787 | 
COc1ccc(C(=O)N2C[C@H](Oc3cc(Cl)ccn3)CC[C@H]2C)c(-n2nccn2)n1 [Example 7, 3-({(2R,5R)-5-[(4-chloropyridin-2-yl)oxy]-2-methylpiperidin-1-yl}carbonyl)-6-methoxy-2-(2H-1,2,3-triazol-2-yl)pyridine] | 0.0857 | 
C[C@@H]1CC[C@@H](Oc2cc(Cl)ccn2)CN1C(=O)c1ccccc1-n1nccn1 [Example 15, 4-Chloro-2-{[(3R,6R)-6-methyl-1-{[2-(2H-1,2,3-triazol-2-yl)phenyl]carbonyl}piperidin-3-yl]oxy}pyridine] | 0.0108 | 0.548
C[C@@H]1CC[C@@H](Oc2cc(F)ccn2)CN1C(=O)c1ccccc1-n1ncnn1 [Example 10, 4-fluoro-2-{[(3R,6R)-6-methyl-1-{[2-(2H-tetrazol-2-yl)phenyl]carbonyl}piperidin-3-yl]oxy}pyridine] | 0.055 | 3.85
